Measurements from PMC9511441, “Semisynthetic teicoplanin derivatives with dual antimicrobial activity against SARS-CoV-2 and multiresistant bacteria” (Scientific Reports, 2022).
Values after ≈ are worked out from the molar mass of the structure shown.

What was measured:
Assay type in all cases: cell-based
E. faecalis = test: MIC, broth microdilution
Description: (§1) We determined the minimal inhibitory concentrations (MIC) of the teicoplanin conjugates for a large panel of Gram-positive bacterial strains, using vancomycin, unmodified teicoplanin, dalbavancin and oritavancin as reference compounds. […] The bacterial strains (see Suppl. Table S5 for all details) were selected to achieve maximum diversity of multidrug-resistance and include strains with known mechanisms of resistance to glycopeptides in clinical use. The S. epidermidis and S. haemolyticus strains resistant to dalbavancin and oritavancin were obtained in vitro from clinical isolates sensitive to the glycopeptide antibiotics.

S. aureus = test: MIC, broth microdilution
Description: as §1

S.pyogenes = test: MIC, broth microdilution
Description: as §1

S. haemolyticus = test: MIC, broth microdilution
Description: as §1

S. epidermidis = test: microbe, parasite or virus in culture
Description: as §1

E. faecium = test: microbe, parasite or virus in culture
Description: as §1

CN[C@H]1C(=O)N[C@@H]2Cc3ccc(cc3)Oc3cc4cc(c3O[C@@H]3O[C@H](C(=O)O)[C@@H](O)[C@H](O)[C@H]3NC(=O)CCCCCCCCC(C)C)Oc3ccc(cc3Cl)[C@@H](O)[C@@H]3NC(=O)[C@H](NC(=O)[C@@H]4NC(=O)[C@@H](NC2=O)c2cc(cc(O)c2Cl)Oc2cc1ccc2O)c1ccc(O)c(c1)-c1c(O[C@H]2O[C@H](CO)[C@@H](O)[C@H](O)[C@@H]2O)cc(O)cc1[C@@H](C(=O)NCCCN(C)C)NC3=O [DALB, dalbavancin, reference compound]
Average MIC value (E. faecalis; E. faecalis VAN^R,TEI^R/VanA, 1 strain): 64 µg/mL | Average MIC value (E. faecalis; E. faecalis VAN^S, TEI^S, 2 strains): 0.25 µg/mL | MIC value (E. faecalis; E.faecalis JH2-2): 0,25 µg/ml | MIC value (E. faecalis; E.faecalis OG1RF): 0,25 µg/ml | MIC value (E. faecalis; E.faecalis V583, VAN,TEI/VanA): 64 µg/mL (≈ 35.2 µM) | MIC value (S. aureus; S. aureus 73OL, MRSA): 0,125 µg/ml | MIC value (S. aureus; S. aureus 214OL, MRSA): 0,125 µg/ml | MIC value (S. aureus; S. aureus 1041OL, MRSA): 0,03125 µg/ml | MIC value (S. aureus; S. aureus A6918, MRSA): 0,125 µg/ml | MIC value (S. aureus; S. aureus A6919, MRSA): 0,0625 µg/ml | MIC value (S. aureus; S. aureus ATCC29213, MSSA): 0,125 µg/ml | Average MIC value (S. aureus; S. aureus CA-MRSA, 1 strain): 0.0625 µg/mL | Average MIC value (S. aureus; S. aureus MRSA, 7 strains): 0.1 µg/mL | MIC value (S. aureus; S. aureus MSSA476, MSSA): 0,125 µg/ml | Average MIC value (S. aureus; S. aureus MSSA, 4 strains): 0.125 µg/mL | MIC value (S. aureus; S. aureus Mu50, MRSA): 0,125 µg/ml | MIC value (S. aureus; S. aureus N315, MRSA): 0,125 µg/ml | MIC value (S. aureus; S. aureus Newman, MSSA): 0,125 µg/ml | MIC value (S. aureus; S. aureus SA564, MSSA): 0,125 µg/ml | MIC value (S. aureus; S. aureus USA300, CA-MRSA): 0,0625 µg/ml | MIC value (S.pyogenes; S.pyogenes H232): 0,0625 µg/ml | MIC value (S.pyogenes; S.pyogenes H550): 0,25 µg/ml | MIC value (S.pyogenes; S.pyogenes H578): 0,25 µg/ml | Average MIC value (S. haemolyticus; S. haemolyticus mecA, 6 strains): 3.83 µg/mL | MIC value (S. haemolyticus; S.haemolyticus DALB_R1, mecA): 2 µg/mL (≈ 1.1 µM) | MIC value (S. haemolyticus; S.haemolyticus DALB_R2, mecA): 8 µg/mL (≈ 4.4 µM) | MIC value (S. haemolyticus; S.haemolyticus DALB_R3, mecA): 2 µg/mL (≈ 1.1 µM) | MIC value (S. haemolyticus; S.haemolyticus DALB_R4, mecA): 2 µg/mL (≈ 1.1 µM) | MIC value (S. haemolyticus; S.haemolyticus DALB_R5, mecA): 1 µg/mL (≈ 0.55 µM) | MIC value (S. haemolyticus; S.haemolyticus ORI_R1, mecA): 8 µg/mL (≈ 4.4 µM) | Average MIC value (S. epidermidis; S. epidermidis mecA, 6 strains): 1.77 µg/mL | MIC value (S. epidermidis; S.epidermidis ORI_R1, mecA): 4 µg/mL (≈ 2.2 µM) | MIC value (S. epidermidis; S.epidermidis ORI_R2, mecA): 4 µg/mL (≈ 2.2 µM) | MIC value (S. epidermidis; S.epidermidis ORI_R3, mecA): 2 µg/mL (≈ 1.1 µM) | MIC value (S. epidermidis; S.epidermidis ORI_R4, mecA): 0,25 µg/ml | MIC value (S. epidermidis; S.epidermidis TEI_R1, mecA): 0,25 µg/ml | MIC value (S. epidermidis; S.epidermidis TEI_R2, mecA): 0,125 µg/ml | Average MIC value (E. faecium; E. faecium VAN^R,TEI^R/VanA, 8 strains): 48 µg/mL | Average MIC value (E. faecium; E. faecium VAN^S, TEI^S, 1 strain): 0.25 µg/mL | MIC value (E. faecium; E.faecium E335, VAN,TEI,LNZ/VanA): 64 µg/mL (≈ 35.2 µM) | MIC value (E. faecium; E.faecium E355, VAN,TEI,LNZ/VanA): 32 µg/mL (≈ 17.6 µM) | MIC value (E. faecium; E.faecium E832, VAN,TEI,LNZ/VanA): 64 µg/mL (≈ 35.2 µM) | MIC value (E. faecium; E.faecium E854, VAN,TEI,LNZ/VanA): 32 µg/mL (≈ 17.6 µM) | MIC value (E. faecium; E.faecium E859, VAN,TEI,LNZ/VanA): 32 µg/mL (≈ 17.6 µM) | MIC value (E. faecium; E.faecium E1114, VAN,TEI,LNZ/VanA): 64 µg/mL (≈ 35.2 µM) | MIC value (E. faecium; E.faecium E1131, VAN,TEI,LNZ/VanA): 64 µg/mL (≈ 35.2 µM) | MIC value (E. faecium; E.faecium E1132, VAN,TEI,LNZ/VanA): 32 µg/mL (≈ 17.6 µM) | MIC value (E. faecium; E.faecium TX0016): 0,25 µg/ml
